The text below walks through data of patent US20080153891A1, “SYNERGISTIC ANTI-CANCER COMPOSITIONS” (The Arizona Board of Regents, priority 2003, published 2008).

Molecules are shown by their SMILES.

Data set [1] in a line: Toxicology study in non-tumor bearing (normal) mice.
Protocol: A toxicology study was performed in non-tumor bearing (i.e., normal) mice given imexon (100 mg/kg/day×9 days) with either gemcitabine (180 mg/kg days 1, 5 and 9) or cytarabine (800 mg/kg days 1, 4 and 7). The tests were conducted to evaluate whether there was increased bone marrow toxicity or decreased renal and hepatic function for imexon combined with either agent.
The test system of a further data set is 8226/s cells. Description: Combination cytotoxicity with imexon, MTT assay, combination index (median-effect). The settings on record: in combination with imexon at fixed constant ratio, 5 days after drugging, classified by combination index. The data set is classed as cell-based, human. Background: Tetrazolium dyes change colour on reduction, which living cells bring about.

The test system of the next data set is A375 cells. Description: Combination cytotoxicity with imexon, SRB assay, combination index (median-effect). The data set is classed as cell-based, human. The settings on record: in combination with imexon at fixed constant ratio, 5 days after drugging, classified by combination index. In general terms: In SRB staining, fixed cells bind dye roughly in proportion to their protein.

Turning to `N=C1NC(=O)N2CC12` (stereo not shown) [Imexon, 4-imino-1,3-diazabicyclo[3.1.0]-hexan-2-one], the “Mean Platelet Counts (SD), Day 10” value in data set [1] (Day 10, imexon 100 mg/kg days 1-9, cytarabine 800 mg/kg days 1, 4, 7, gemcitabine 180 mg/kg days 1, 5, 9) is listed as 880 (180) × 1000/μL. Further, the “Mean Platelet Counts (SD), Day 12” value in data set [1] (Day 12, imexon 100 mg/kg days 1-9, cytarabine 800 mg/kg days 1, 4, 7, gemcitabine 180 mg/kg days 1, 5, 9) was 920 (138) × 1000/μL. Further, in data set [1] (imexon 100 mg/kg/day x 9 days), the “number of red blood cells” value is “increased slightly”.
As to `Nc1ccn([C@@H]2O[C@H](CO)[C@@H](O)[C@@H]2O)c(=O)n1` [cytarabine], in the data set on 8226/s cells, the “Effect of second antineoplastic agent in combination with imexon, 8226/S CELL LINE” value (“Effect … 8226/S CELL LINE” below) is reported as “Synergistic (Where the combination index is less than 1, synergism is indicated)”. Also, the “Effect of second antineoplastic agent in combination with imexon, A375 CELL LINE” value (shortened to “Effect … A375 CELL LINE”) in the data set on A375 cells is listed as “Synergistic (Where the combination index is less than 1, synergism is indicated)”.
On to `N.N.[Cl][Pt][Cl]` [cisplatin], for which the “Effect … 8226/S CELL LINE” value with 8226/s cells is on record as “Synergistic (Where the combination index is less than 1, synergism is indicated)”. In addition, in the data set with A375 cells, the “Effect … A375 CELL LINE” value was “Synergistic (Where the combination index is less than 1, synergism is indicated)”.
For the molecule `O=c1[nH]cc(F)c(=O)[nH]1` [5-fluorouracil], the “Effect … 8226/S CELL LINE” value in the data set with 8226/s cells is on record as “Synergistic (Where the combination index is less than 1, synergism is indicated)”. The “Effect … A375 CELL LINE” value with A375 cells was “Synergistic (Where the combination index is less than 1, synergism is indicated)”.
Consider `CC(=O)O[C@@]12CO[C@@H]1C[C@H](O)[C@@]1(C)C(=O)[C@H](O)C3=C(C)[C@@H](OC(=O)[C@H](O)[C@@H](NC(=O)OC(C)(C)C)c4ccccc4)C[C@@](O)([C@@H](OC(=O)c4ccccc4)[C@H]21)C3(C)C` [taxotere, docetaxel], for which the “Effect … 8226/S CELL LINE” value in the data set with 8226/s cells was “Synergistic (Where the combination index is less than 1, synergism is indicated)”. For the same molecule, in the data set on A375 cells, the “Effect … A375 CELL LINE” value was “Synergistic (Where the combination index is less than 1, synergism is indicated)”.
As to `CCC1=C[C@@H]2CN(C1)Cc1c([nH]c3ccccc13)[C@@](C(=O)OC)(c1cc3c(cc1OC)N(C)[C@H]1[C@@](O)(C(=O)OC)[C@H](OC(C)=O)[C@]4(CC)C=CCN5CC[C@]31[C@@H]54)C2` [vinorelbine], the “Effect … 8226/S CELL LINE” value in the data set on 8226/s cells is listed as “Additive (Where the combination index is equal to 1, summation (also commonly referred to as additivity) is indicated)”. The “Effect … A375 CELL LINE” value in the data set on A375 cells is reported as “Additive (Where the combination index is equal to 1, summation (also commonly referred to as additivity) is indicated)”.
Consider `CN(Cc1cnc2nc(N)nc(N)c2n1)c1ccc(C(=O)N[C@@H](CCC(=O)O)C(=O)O)cc1` [methotrexate], for which the “Effect … 8226/S CELL LINE” value in the data set with 8226/s cells is “Antagonistic (Where the combination index is greater than 1, antagonism is indicated)”. Besides, the “Effect … A375 CELL LINE” value in the data set with A375 cells is on record as “Antagonistic (Where the combination index is greater than 1, antagonism is indicated)”.
Turning to `CC(=O)O[C@H]1C(=O)[C@@]2(C)[C@H]([C@H](OC(=O)c3ccccc3)[C@]3(O)C[C@H](OC(=O)[C@H](O)[C@@H](NC(=O)c4ccccc4)c4ccccc4)C(C)=C1C3(C)C)[C@]1(OC(C)=O)CO[C@@H]1C[C@@H]2O` [paclitaxel], the “Effect … 8226/S CELL LINE” value with 8226/s cells was “Antagonistic (Where the combination index is greater than 1, antagonism is indicated)”. For the same molecule, the “Effect … A375 CELL LINE” value in the data set on A375 cells is “Additive (Where the combination index is equal to 1, summation (also commonly referred to as additivity) is indicated)”.
For the molecule `COc1cccc2c1C(=O)c1c(O)c3c(c(O)c1C2=O)C[C@@](O)(C(=O)CO)C[C@@H]3O[C@H]1C[C@H](N)[C@H](O)[C@H](C)O1` [doxorubicin], the “Effect … 8226/S CELL LINE” value with 8226/s cells is “Antagonistic (Where the combination index is greater than 1, antagonism is indicated)”. Moreover, in the data set with A375 cells, the “Effect … A375 CELL LINE” value is listed as “Antagonistic (Where the combination index is greater than 1, antagonism is indicated)”.
For the molecule `CN(C)/N=N/c1[nH]cnc1C(N)=O` [dacarbazine (DTIC), dacarbazine], in the data set on 8226/s cells, the “Effect … 8226/S CELL LINE” value is recorded as “Synergistic (Where the combination index is less than 1, synergism is indicated)”. Further, the “Effect … A375 CELL LINE” value in the data set on A375 cells is given as “Synergistic (Where the combination index is less than 1, synergism is indicated)”.
For the molecule `Nc1ccn([C@@H]2O[C@H](CO)[C@@H](O)C2(F)F)c(=O)n1` [gemcitabine], the “Effect … 8226/S CELL LINE” value in the data set on 8226/s cells is on record as “Synergistic (Where the combination index is less than 1, synergism is indicated)”. In addition, in the data set on A375 cells, the “Effect … A375 CELL LINE” value is reported as “Synergistic (Where the combination index is less than 1, synergism is indicated)”.
With `C[C@@H]1C[C@H]2[C@@H]3CCC4=CC(=O)C=C[C@]4(C)[C@@]3(F)[C@@H](O)C[C@]2(C)[C@@]1(O)C(=O)CO` [dexamethasone], in the data set on 8226/s cells, the “Effect … 8226/S CELL LINE” value is listed as “Antagonistic (Where the combination index is greater than 1, antagonism is indicated)”. Moreover, the “Effect … A375 CELL LINE” value with A375 cells is listed as “Additive (Where the combination index is equal to 1, summation (also commonly referred to as additivity) is indicated)”.
